{"source": "patent US20250352520A1", "about": "“USE OF DEXPRAMIPEXOLE FOR THE TREATMENT OF EOSINOPHILIC COPD” (Areteia Therapeutics, Inc., priority 2024, published 2025)", "conditions": "Week 16; >=50% AEC reduction at Week 16", "data": [{"smiles": "CCCN[C@@H]1CCc2nc(N)sc2C1", "note": "[Dexpramipexole, (6R)-2-amino-4,5,6,7-tetrahydro-6-(propylamino)benzothiazole]", "values": [{"measurement": "Pre-BD FEF25-75 % change from baseline, Max", "value": 27, "unit": "%"}, {"measurement": "Pre-BD FEF25-75 % change from baseline, Mean ± SD", "value": "13.6 ± 13.59", "unit": "%"}, {"measurement": "Pre-BD FEF25-75 % change from baseline, Median", "value": 13.7, "unit": "%"}, {"measurement": "Pre-BD FEF25-75 % change from baseline, Min", "value": 0, "unit": "%"}, {"measurement": "Pre-BD FEF25-75 % change from baseline, Q1", "value": 0, "unit": "%"}, {"measurement": "Pre-BD FEF25-75 % change from baseline, Q3", "value": 27, "unit": "%"}, {"measurement": "Pre-BD FEF25-75 Observed, Max", "value": 1170, "unit": "mL/s"}, {"measurement": "Pre-BD FEF25-75 Observed, Mean ± SD", "value": "736.7 ± 486.76", "unit": "mL/s"}, {"measurement": "Pre-BD FEF25-75 Observed, Median", "value": 830.0, "unit": "mL/s"}, {"measurement": "Pre-BD FEF25-75 Observed, Min", "value": 210, "unit": "mL/s"}, {"measurement": "Pre-BD FEF25-75 Observed, Q1", "value": 210, "unit": "mL/s"}, {"measurement": "Pre-BD FEF25-75 Observed, Q3", "value": 1170, "unit": "mL/s"}, {"measurement": "Pre-BD FEF25-75 change from baseline, Max", "value": 250, "unit": "mL/s"}, {"measurement": "Pre-BD FEF25-75 change from baseline, Mean ± SD", "value": "116.7 ± 125.83", "unit": "mL/s"}, {"measurement": "Pre-BD FEF25-75 change from baseline, Median", "value": 100.0, "unit": "mL/s"}, {"measurement": "Pre-BD FEF25-75 change from baseline, Min", "value": 0, "unit": "mL/s"}, {"measurement": "Pre-BD FEF25-75 change from baseline, Q1", "value": 0, "unit": "mL/s"}, {"measurement": "Pre-BD FEF25-75 change from baseline, Q3", "value": 250, "unit": "mL/s"}, {"measurement": "Pre-BD FEV1 % change from baseline, Max", "value": 52, "unit": "%"}, {"measurement": "Pre-BD FEV1 % change from baseline, Mean ± SD", "value": "22.5 ± 25.80", "unit": "%"}, {"measurement": "Pre-BD FEV1 % change from baseline, Median", "value": 8.3, "unit": "%"}, {"measurement": "Pre-BD FEV1 % change from baseline, Min", "value": 7, "unit": "%"}, {"measurement": "Pre-BD FEV1 % change from baseline, Q1", "value": 7, "unit": "%"}, {"measurement": "Pre-BD FEV1 % change from baseline, Q3", "value": 52, "unit": "%"}, {"measurement": "Pre-BD FEV1 Observed, Max", "value": 1980, "unit": "mL"}, {"measurement": "Pre-BD FEV1 Observed, Mean ± SD", "value": "1523.3 ± 657.29", "unit": "mL"}, {"measurement": "Pre-BD FEV1 Observed, Median", "value": 1820.0, "unit": "mL"}, {"measurement": "Pre-BD FEV1 Observed, Min", "value": 770, "unit": "mL"}, {"measurement": "Pre-BD FEV1 Observed, Q1", "value": 770, "unit": "mL"}, {"measurement": "Pre-BD FEV1 Observed, Q3", "value": 1980, "unit": "mL"}, {"measurement": "Pre-BD FEV1 change from baseline, Max", "value": 680, "unit": "mL"}, {"measurement": "Pre-BD FEV1 change from baseline, Mean ± SD", "value": "290.0 ± 340.73", "unit": "mL"}, {"measurement": "Pre-BD FEV1 change from baseline, Median", "value": 140.0, "unit": "mL"}, {"measurement": "Pre-BD FEV1 change from baseline, Min", "value": 50, "unit": "mL"}, {"measurement": "Pre-BD FEV1 change from baseline, Q1", "value": 50, "unit": "mL"}, {"measurement": "Pre-BD FEV1 change from baseline, Q3", "value": 680, "unit": "mL"}, {"measurement": "Pre-BD FVC % change from baseline, Max", "value": 29, "unit": "%"}, {"measurement": "Pre-BD FVC % change from baseline, Mean ± SD", "value": "13.7 ± 13.73", "unit": "%"}, {"measurement": "Pre-BD FVC % change from baseline, Median", "value": 10.0, "unit": "%"}, {"measurement": "Pre-BD FVC % change from baseline, Min", "value": 2, "unit": "%"}, {"measurement": "Pre-BD FVC % change from baseline, Q1", "value": 2, "unit": "%"}, {"measurement": "Pre-BD FVC % change from baseline, Q3", "value": 29, "unit": "%"}, {"measurement": "Pre-BD FVC Observed, Max", "value": 3250, "unit": "mL"}, {"measurement": "Pre-BD FVC Observed, Mean ± SD", "value": "2743.3 ± 470.57", "unit": "mL"}, {"measurement": "Pre-BD FVC Observed, Median", "value": 2660.0, "unit": "mL"}, {"measurement": "Pre-BD FVC Observed, Min", "value": 2320, "unit": "mL"}, {"measurement": "Pre-BD FVC Observed, Q1", "value": 2320, "unit": "mL"}, {"measurement": "Pre-BD FVC Observed, Q3", "value": 3250, "unit": "mL"}, {"measurement": "Pre-BD FVC change from baseline, Max", "value": 730, "unit": "mL"}, {"measurement": "Pre-BD FVC change from baseline, Mean ± SD", "value": "333.3 ± 351.62", "unit": "mL"}, {"measurement": "Pre-BD FVC change from baseline, Median", "value": 210.0, "unit": "mL"}, {"measurement": "Pre-BD FVC change from baseline, Min", "value": 60, "unit": "mL"}, {"measurement": "Pre-BD FVC change from baseline, Q1", "value": 60, "unit": "mL"}, {"measurement": "Pre-BD FVC change from baseline, Q3", "value": 730, "unit": "mL"}, {"measurement": "Pre-BD Peak Flow % change from baseline, Max", "value": 115, "unit": "%"}, {"measurement": "Pre-BD Peak Flow % change from baseline, Mean ± SD", "value": "50.4 ± 56.32", "unit": "%"}, {"measurement": "Pre-BD Peak Flow % change from baseline, Median", "value": 21.5, "unit": "%"}, {"measurement": "Pre-BD Peak Flow % change from baseline, Min", "value": 14, "unit": "%"}, {"measurement": "Pre-BD Peak Flow % change from baseline, Q1", "value": 14, "unit": "%"}, {"measurement": "Pre-BD Peak Flow % change from baseline, Q3", "value": 115, "unit": "%"}, {"measurement": "Pre-BD Peak Flow Observed, Max", "value": 338, "unit": "L/min"}, {"measurement": "Pre-BD Peak Flow Observed, Mean ± SD", "value": "240.0 ± 88.20", "unit": "L/min"}, {"measurement": "Pre-BD Peak Flow Observed, Median", "value": 215.0, "unit": "L/min"}, {"measurement": "Pre-BD Peak Flow Observed, Min", "value": 167, "unit": "L/min"}, {"measurement": "Pre-BD Peak Flow Observed, Q1", "value": 167, "unit": "L/min"}, {"measurement": "Pre-BD Peak Flow Observed, Q3", "value": 338, "unit": "L/min"}, {"measurement": "Pre-BD Peak Flow change from baseline, Max", "value": 181, "unit": "L/min"}, {"measurement": "Pre-BD Peak Flow change from baseline, Mean ± SD", "value": "80.0 ± 87.88", "unit": "L/min"}, {"measurement": "Pre-BD Peak Flow change from baseline, Median", "value": 38.0, "unit": "L/min"}, {"measurement": "Pre-BD Peak Flow change from baseline, Min", "value": 21, "unit": "L/min"}, {"measurement": "Pre-BD Peak Flow change from baseline, Q1", "value": 21, "unit": "L/min"}, {"measurement": "Pre-BD Peak Flow change from baseline, Q3", "value": 181, "unit": "L/min"}]}]}
